Assay results as given in patent US9370589B2, “Switching fluorescent nanoparticle probe and fluorescent particle imaging method using same” (SHIMADZU CORPORATION, priority 2010, dated 2016).

What was measured:
[1] = Fluorescence intensity before and after change in external environment (addition of plasma); settings: for Fluorescence maximum: lactosome (PSar-PLLA) containing 20 mol % of dye (IC7-2: 15 mol %), addition of plasma, polymer 1/15 mg/mL; for Fluorescence intensity (A) / Fluorescence intensity (PBS)(B) / Ratio of fluorescence intensity (A/B): lactosome containing 20 mol % of dye (IC7-2: 15 mol %); for Fluorescence intensity (A): after addition of plasma; for Fluorescence intensity (PBS)(B): in PBS, at the plasma fluorescence maximum wavelength; for Ratio of fluorescence intensity (A/B): plasma versus PBS
Procedure: Requirements for recovery of fluorescence intensity under in vivo conditions were studied. A water dispersion of the lactosome encapsulating 20 mol % of IC7-1 in a carrier agent PSar-PLLA (1 mg/mL) and phosphate buffered saline (PBS), plasma (collected from a male ddY), 5 wt % albumin (BSA), or 5 wt % SDS were mixed 1:1 (volume ratio), respectively, and the mixture was allowed to stand at room temperature for 30 minutes under lightproof conditions, and then diluted with PBS so that the concentration of the amphiphilic polymer was 1/15 mg/mL to measure a fluorescence spectrum (FIG. 3(a)).

[2] = Fluorescence intensity before and after change in external environment (addition of 5 wt % SDS); settings: lactosome containing 20 mol % of dye (IC7-2: 15 mol %); for Ratio of fluorescence intensity (A/B): 5 wt % SDS versus PBS; for Fluorescence maximum: addition of 5 wt % SDS, polymer 1/15 mg/mL; for Fluorescence intensity (A): after addition of 5 wt % SDS; for Fluorescence intensity (PBS)(B): in PBS, at the SDS fluorescence maximum wavelength
Description: (§1) Requirements for recovery of fluorescence intensity under in vivo conditions were studied.
(§2) It is to be noted that specific composition of the phosphate buffered saline (PBS) is as follows: 29 g of Na2HPO4.12H2O, 2.96 g of NaH2PO4.2H2O, and 8.7 g of NaCl per 1 liter of ultrapure water.

[3] = molecular target: albumin (BSA) (Bos taurus, UniProt P02769); test: Fluorescence intensity before and after change in external environment (addition of 5 wt % BSA); settings: lactosome containing 20 mol % of dye (IC7-2: 15 mol %); for Ratio of fluorescence intensity (A/B): 5 wt % BSA versus PBS; for Fluorescence maximum: addition of 5 wt % BSA, polymer 1/15 mg/mL; for Fluorescence intensity (A): after addition of 5 wt % BSA; for Fluorescence intensity (PBS)(B): in PBS, at the BSA fluorescence maximum wavelength
Description: as §1, §2

[4] = Absorption and fluorescence spectra of fluorescent dye-encapsulating lactosomes in ultrapure water; type: physicochemical; settings: polymer 1 mg/mL; for absorption maximum / Fluorescence maximum: lactosome encapsulating 1 mol % of dye
Procedure: Among the lactosomes encapsulating the fluorescent dye IC7-1 (IC7-1/Lactosomes) obtained in Example 1-1, the freeze-dried products of the lactosomes each encapsulating 1 mol %, 5 mol %, 10 mol % and 20 mol % of the fluorescent dye were subjected to measurement of absorption spectra and fluorescence spectra in the following manner.
The measurement of absorption spectra was performed to confirm that each of these lactosomes encapsulated the fluorescent dye according to their respective fluorescent dye blend ratios. Further, the measurement of fluorescence intensity of the fluorescent dye-encapsulating lactosomes was performed. The measurement of absorption spectra was performed using an ultraviolet-visible spectrophotometer (UVmini-1240, manufactured by SHIMADZU CORPORATION). The measurement of fluorescence spectra was performed at an excitation wavelength of 785 nm in the range of 700 to 900 nm using a fluorescence spectrophotometer (RF-5300PC, manufactured by SHIMADZU CORPORATION).
Each of the fluorescent dye-encapsulating lactosomes was dispersed in ultrapure water so that the concentration of the amphiphilic polymer was 1 mg/mL to measure absorption and fluorescence spectra (FIG. 1). The lactosome encapsulating 1 mol % of IC7-1 had adsorption maximum at 831 nm and fluorescence maximum at 836 nm. Although the intensity of absorbance increased as the fluorescent dye content increased, the intensity of fluorescence was highest when the fluorescent dye content was 1 mol %, and was reduced to about 1/120 when the fluorescent dye content was 20 mol % as compared to when the fluorescent dye content was 1 mol % (FIGS. 1(a) and 1(b)). The lactosome encapsulating 1 mol % of IC7-2 had absorption maximum at 831 nm and fluorescence maximum at 833 nm. […] Also when IC7-2 was contained, quenching of fluorescence was observed. The intensity of fluorescence was reduced to about ⅛ when the IC7-2 content was 20 mol % as compared to when the IC7-2 content was 1 mol % (FIGS. 1(c) and 1(d)).
Among the lactosomes encapsulating the fluorescent dye IC7-1 (IC7-1/Lactosomes) obtained in Example 1-1, the lactosomes each encapsulating 0.5 mol % (for comparison), 1 mol %, 2 mol %, 4 mol %, 8 mol %. 12 mol %, 16 mol %, or 20 mol % of the fluorescent dye IC7-1 (IC7-1/Lactosomes) were dispersed in ultrapure water so that the concentration of the amphiphilic polymer was 1 mg/mL to measure the maximum value of fluorescence at an excitation wavelength of 785 nm (FIG. 2(a)).

[5] = Dependence of fluorescence intensity of fluorescent dye-encapsulating lactosome on fluorescent dye content; type: physicochemical; settings: for intensity of fluorescence by adding SDS, BSA, or plasma: lactosome with varied dye content; for fluorescent dye content at which the intensity of fluorescence in PBS was maximized: polymer 1/15 mg/mL
Procedure: Lactosomes encapsulating, as a fluorescent dye, IC7-1, IC7-2, IR820, IR783, or IR806 were prepared by changing the fluorescent dye content (1 mg/mL), and were then mixed with PBS, 5 wt % SDS, 5 wt % BSA, or plasma 1:1 (volume ratio), and the mixture was allowed to stand at room temperature for 30 minutes under lightproof conditions, and then diluted with PBS so that the concentration of the amphiphilic polymer was 1/15 mg/mL to measure the intensity of fluorescence using Fluorolog-3 (HORIBA Jobin Yvon Inc.) (FIG. 6).

albumin (BSA), sequence (P02769 25-607): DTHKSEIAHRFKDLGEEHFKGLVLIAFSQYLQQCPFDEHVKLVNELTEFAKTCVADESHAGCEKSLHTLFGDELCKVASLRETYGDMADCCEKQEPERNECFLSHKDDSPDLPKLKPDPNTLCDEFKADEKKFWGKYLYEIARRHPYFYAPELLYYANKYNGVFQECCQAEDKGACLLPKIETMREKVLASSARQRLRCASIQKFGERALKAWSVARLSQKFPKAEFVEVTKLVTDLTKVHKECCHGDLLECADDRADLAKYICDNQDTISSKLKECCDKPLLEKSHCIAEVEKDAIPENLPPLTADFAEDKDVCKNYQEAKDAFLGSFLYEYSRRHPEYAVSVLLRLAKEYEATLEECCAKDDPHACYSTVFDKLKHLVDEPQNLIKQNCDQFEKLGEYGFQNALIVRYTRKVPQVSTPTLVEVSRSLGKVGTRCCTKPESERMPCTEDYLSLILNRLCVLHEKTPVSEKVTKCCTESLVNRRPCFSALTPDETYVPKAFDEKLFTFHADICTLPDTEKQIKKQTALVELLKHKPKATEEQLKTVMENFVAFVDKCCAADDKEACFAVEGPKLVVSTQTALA

With `N#CC1=c2cc3c4c(c2Oc2c1cc1c5c2CCCN5CCC1)CCC[N+]=4CCC3` [Rhodamine 800] the Fluorescence maximum [1] was 699 nm, the “Fluorescence intensity (A)” value [1] was 138170 and the “Fluorescence intensity (PBS)(B)” value [1] was 82260. For the same compound, the “Ratio of fluorescence intensity (A/B)” value [1] was 1.7, the “Ratio of fluorescence intensity (A/B)” value [2] was 1.9 and the Fluorescence maximum [2] was 702 nm. For the same compound, the “Fluorescence intensity (A)” value [2] was 152580, the “Fluorescence intensity (PBS)(B)” value [2] was 80647 and the “Ratio of fluorescence intensity (A/B)” value [3] was 1.7. The Fluorescence maximum [3] was 699 nm, the “Fluorescence intensity (A)” value [3] was 139250 and the “Fluorescence intensity (PBS)(B)” value [3] was 82260.

For `CC1(C)C(/C=C/C=C/C=C/C=C2\N(CCCCS(=O)(=O)O)c3ccc4ccccc4c3C2(C)C)=[N+](CCCCS(=O)(=O)[O-])c2ccc3ccccc3c21` [ICG, indocyanine green], the Fluorescence maximum [1] was 824 nm, the “Fluorescence intensity (A)” value [1] was 342590 and the “Fluorescence intensity (PBS)(B)” value [1] was 5212. For the same compound, the “Ratio of fluorescence intensity (A/B)” value [1] was 65.7, the “Ratio of fluorescence intensity (A/B)” value [2] was 71.9 and the Fluorescence maximum [2] was 821 nm. The “Fluorescence intensity (A)” value [2] was 382900, the “Fluorescence intensity (PBS)(B)” value [2] was 5327 and the “Ratio of fluorescence intensity (A/B)” value [3] was 33.4. The Fluorescence maximum [3] was 802 nm, the “Fluorescence intensity (A)” value [3] was 148650 and the “Fluorescence intensity (PBS)(B)” value [3] was 4454.

In the case of `O=C(O)c1ccccc1C1=c2cc3c4c(c2Oc2c1cc1c5c2CCCN5CCC1)CCC[N+]=4CCC3` [Rhodamine 101], the Fluorescence maximum [1] is reported as 601 nm, the “Fluorescence intensity (A)” value [1] is reported as 154280 and the “Fluorescence intensity (PBS)(B)” value [1] is reported as 163410. The “Ratio of fluorescence intensity (A/B)” value [1] was 0.9, the “Ratio of fluorescence intensity (A/B)” value [2] was 1.5 and the Fluorescence maximum [2] was 598 nm. The “Fluorescence intensity (A)” value [2] was 249130, the “Fluorescence intensity (PBS)(B)” value [2] was 162110 and the “Ratio of fluorescence intensity (A/B)” value [3] was 1.1. The Fluorescence maximum [3] was 600 nm, the “Fluorescence intensity (A)” value [3] was 171710 and the “Fluorescence intensity (PBS)(B)” value [3] was 163500.

With `CC1(C)C(/C=C/C2=C(Cl)C(=C/C=C3/C=CN(CCO)c4ccccc43)/CCC2)=[N+](CCCCCC(=O)O)c2ccc3ccccc3c21.[I-]` [IC7-2] the absorption maximum [4] was 831 nm, the Fluorescence maximum ([4]; excitation 785 nm) was 833 nm and the “intensity of fluorescence at 20 mol % dye content as compared to 1 mol % (reduced to)” value ([4]; lactosome) was “about ⅛”. For the same compound, the “intensity of fluorescence by adding SDS, BSA, or plasma” value [5] was “increased with dependence on fluorescent dye content”, the “fluorescent dye content at which the intensity of fluorescence in PBS was maximized” value ([5]; lactosome) was 2.5 mol % and the Fluorescence maximum [1] was 901 nm. For the same compound, the “Fluorescence intensity (A)” value [1] was 241880, the “Fluorescence intensity (PBS)(B)” value [1] was 14224 and the “Ratio of fluorescence intensity (A/B)” value [1] was 17.0. For the same compound, the “Ratio of fluorescence intensity (A/B)” value [2] was 7.9, the Fluorescence maximum [2] was 916 nm and the “Fluorescence intensity (A)” value [2] was 124942. The “Fluorescence intensity (PBS)(B)” value [2] was 15816, the “Ratio of fluorescence intensity (A/B)” value [3] was 13.1 and the Fluorescence maximum [3] was 903 nm. The “Fluorescence intensity (A)” value [3] was 185345 and the “Fluorescence intensity (PBS)(B)” value [3] was 14147.

In the case of `CC1(C)C(/C=C/C2=C(Cl)C(=C/C=C3\N(CCCCCC(=O)O)c4ccc5ccccc5c4C3(C)C)/CCC2)=[N+](CCO)c2ccc3ccccc3c21.[I-]` [IC7-1], the absorption maximum [4] is reported as 831 nm, the Fluorescence maximum ([4]; excitation 785 nm) is reported as 836 nm and the “intensity of fluorescence at 20 mol % dye content as compared to 1 mol % (reduced to)” value ([4]; lactosome) is reported as “about 1/120”. The “fluorescent dye content at which the intensity of fluorescence was highest” value ([4]; lactosome, excitation 785 nm) was 1 mol %, the “increase of fluorescent dye content by which fluorescence intensity per 1 μM dye is reduced to ½” value ([4]; lactosome, until content reached 8 mol %) was 0.78 mol % and the “intensity of fluorescence by adding SDS, BSA, or plasma” value [5] was “increased with dependence on fluorescent dye content”. The “fluorescent dye content at which the intensity of fluorescence in PBS was maximized” value ([5]; lactosome) was 1 mol %, the “increase of encapsulated fluorescent dye amount by which fluorescence intensity per certain amount of dye is reduced to ½” value ([5]; lactosome, amphiphilic polymer concentration 1/15 mg/mL) was 1.12 mol % and the Fluorescence maximum [1] was 844 nm. For the same compound, the “Fluorescence intensity (A)” value [1] was 199746, the “Fluorescence intensity (PBS)(B)” value [1] was 696 and the “Ratio of fluorescence intensity (A/B)” value [1] was 287.0. For the same compound, the “Ratio of fluorescence intensity (A/B)” value [2] was 204.5, the Fluorescence maximum [2] was 852 nm and the “Fluorescence intensity (A)” value [2] was 141929. The “Fluorescence intensity (PBS)(B)” value [2] was 694, the “Ratio of fluorescence intensity (A/B)” value [3] was 156.3 and the Fluorescence maximum [3] was 837 nm. The “Fluorescence intensity (A)” value [3] was 92384 and the “Fluorescence intensity (PBS)(B)” value [3] was 591.
